Tests used:
5-HT5A receptor = 5-HT5A receptor (Homo sapiens, UniProt P47898); assay: Radio-ligand binding assay 5-HT5A; conditions: 10 μM compound; [3H] LSD 1 nM; human rec. HEK293 cells
Description: (§1) Determination of binding affinities for various 5-HT receptors was performed by radio-ligand binding assays. Briefly, tissue or cells expressing the receptor of interest were suspended in incubation buffer and radio-ligands and 10 μM N-(2-chloro-3,4-dimethoxybenzylidene-amino)guanidine were added. After incubation, separation of bound and free radio-ligand was done by multiple washings with buffer.
(§2) The results were presented as the percent inhibition of specific binding. The IC50 values were determined by a non-linear least square regression analysis using MathIQ™ (ID Business Solution Ltd., UK). The inhibition constants (Ki) were calculated using the equation of Cheng and Prusoff (Cheng Y, Prusoff W H, Biochem. Pharmacol. 22:3099-3108, 1973) using the observed IC50 of the tested compound, the concentration of radioligand employed in the assay and the historical values for the KD of the ligand.

formalin-induced pain = assay: Formalin test, inflammatory pain model; assay type: in vivo, rat; conditions: 30 mg/kg orally 60 min before formalin
Text: Inflammatory pain is associated with tissue damage and the resulting inflammatory process is related to conditions such as arthritis and many autoimmune disease states. The formalin test in rats is a widely used tool when studying inflammatory pain in animals (Dubuisson, D., and Dennis, S. G. (1977), Pain 4:161-174; Wheeler-Aceto, H., et al. (1990), Pain 40:229-238). This model allows the study of two different types of pain that appears in two separate phases: phase 1 which is a direct stimulation of the nerve by the formalin and thus resembles the acute pain, followed by phase 2 which is an inflammatory-reaction induced pain similar to the pain in, e.g., arthritis. […]
In accordance with the literature (Sufka K J, et al., Eur J Pain (1998), 2(4):351-8; Maione S, et al., Br. J. Pharmacol. 2007; 150:766-781), nociceptive response was monitored in consecutive 5-min periods for 60 min following formalin injection. In particular, nociceptive responses were recorded by measuring the cumulative time of lifting, licking, shaking and flinching of the injected paw per unit time (5 minutes). The nociceptive response was measured both as every 5 minutes and as total time of the first phase (0-15 min) and the second phase (15-60 min). […]

5-HT2A receptor = 5-HT2A receptor (Homo sapiens, UniProt P28223); assay: Radio-ligand binding assay 5-HT2A; conditions: 10 μM compound; [3H]-Ketanserin 2 nM; human cortex
Sequence of 5-HT2A receptor (P28223 whole entry): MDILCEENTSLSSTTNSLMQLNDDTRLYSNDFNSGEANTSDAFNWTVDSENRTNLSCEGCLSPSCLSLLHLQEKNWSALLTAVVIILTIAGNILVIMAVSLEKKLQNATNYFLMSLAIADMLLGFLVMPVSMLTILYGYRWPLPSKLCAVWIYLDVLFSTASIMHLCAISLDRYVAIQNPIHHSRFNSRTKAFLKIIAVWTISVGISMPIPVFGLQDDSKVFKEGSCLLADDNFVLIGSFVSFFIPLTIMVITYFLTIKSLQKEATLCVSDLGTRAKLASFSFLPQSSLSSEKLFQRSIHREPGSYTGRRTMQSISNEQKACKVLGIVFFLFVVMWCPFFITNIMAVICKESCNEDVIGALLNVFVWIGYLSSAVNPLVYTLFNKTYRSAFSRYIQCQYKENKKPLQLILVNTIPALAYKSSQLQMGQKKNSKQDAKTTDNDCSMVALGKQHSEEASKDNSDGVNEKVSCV
Description: as §1, §2

5-HT4 receptor = 5-HT4 receptor (Rattus norvegicus, UniProt Q62758); assay: 5-HT4 functionality test; conditions: at 100 μM
Sequence of 5-HT4 receptor (Q62758 whole entry): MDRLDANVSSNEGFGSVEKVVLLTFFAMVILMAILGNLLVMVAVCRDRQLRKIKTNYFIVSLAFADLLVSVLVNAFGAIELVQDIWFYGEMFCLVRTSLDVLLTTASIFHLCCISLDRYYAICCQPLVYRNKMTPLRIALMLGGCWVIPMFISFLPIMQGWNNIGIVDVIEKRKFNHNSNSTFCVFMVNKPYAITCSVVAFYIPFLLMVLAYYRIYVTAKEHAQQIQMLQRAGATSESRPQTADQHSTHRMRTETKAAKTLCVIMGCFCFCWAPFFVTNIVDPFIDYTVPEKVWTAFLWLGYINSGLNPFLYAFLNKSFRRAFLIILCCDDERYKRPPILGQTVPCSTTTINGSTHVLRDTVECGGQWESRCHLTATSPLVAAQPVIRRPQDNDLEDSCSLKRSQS
Text: (§3) N-(2-chloro-3,4-dimethoxybenzylideneamino)guanidine was further tested for functionality against 5-HT2B (Cohen et al. (1987), J. Pharmacol. Exp. Ther. 243:264-269), 5-HT2C (Adlersber M, et al. (2000), J. Neurosci. Res. 61(6):674-685; Cussac D. et al. (2002), Mol. Pharmacol. 62(3):578-589) and 5-HT4 (Reeves et al. (1991), Br. J. Pharmacol. 103:1067-1072).

5-HT2C receptor = biological target: T1, 5-HT2C receptor (Homo sapiens, UniProt P28335); assay: 5-HT2C GTPγS binding assay (functionality); assay type: biochemical; conditions: FIG. 2, read-out: IC50, antagonistic effect on 5-HT2C
T1 sequence (P28335 33-458): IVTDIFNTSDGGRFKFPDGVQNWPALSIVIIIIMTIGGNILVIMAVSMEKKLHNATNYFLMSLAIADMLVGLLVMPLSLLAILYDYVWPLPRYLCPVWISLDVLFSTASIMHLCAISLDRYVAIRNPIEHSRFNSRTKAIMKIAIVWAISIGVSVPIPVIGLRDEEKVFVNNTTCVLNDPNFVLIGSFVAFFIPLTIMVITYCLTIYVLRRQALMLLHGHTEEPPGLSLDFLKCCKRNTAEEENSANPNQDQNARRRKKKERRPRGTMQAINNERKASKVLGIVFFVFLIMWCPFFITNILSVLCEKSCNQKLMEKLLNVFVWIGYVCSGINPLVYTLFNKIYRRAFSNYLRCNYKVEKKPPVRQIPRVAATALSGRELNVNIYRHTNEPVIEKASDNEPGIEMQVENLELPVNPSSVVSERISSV
Description: FIG. 2. Antagonistic effect of N-(2-chloro-3,4-dimethoxybenzylideneamino)guanidine on 5-HT2B and 5-HT2C receptors. The functionality of the compound was evaluated with the 5-HT2B tissue assay and the 5-HT2C GTPγS binding assay methods.
as §3

Sequence of 5-HT5A receptor (P47898 whole entry): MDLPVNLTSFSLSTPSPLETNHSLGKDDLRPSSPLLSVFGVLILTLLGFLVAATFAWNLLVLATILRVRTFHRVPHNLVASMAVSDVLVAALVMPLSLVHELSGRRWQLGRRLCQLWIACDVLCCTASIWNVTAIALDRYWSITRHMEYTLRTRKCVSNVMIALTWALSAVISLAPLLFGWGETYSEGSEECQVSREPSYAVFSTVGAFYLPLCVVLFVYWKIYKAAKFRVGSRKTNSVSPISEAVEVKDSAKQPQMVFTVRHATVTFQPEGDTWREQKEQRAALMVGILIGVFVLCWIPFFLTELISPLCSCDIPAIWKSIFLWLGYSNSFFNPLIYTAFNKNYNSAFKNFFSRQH

## COc1ccc(C=NNC(=N)N)c(Cl)c1OC [N-(2-chloro-3,4-dimethoxybenzylideneamino)guanidine]
5-HT5A receptor
  inhibition at 10 µM: 54%
formalin-induced pain
  nociceptive response, first phase (0-15 min): without significantly influencing
formalin-induced pain; FIG. 6
  nociceptive response, phase 2 (15-60 min), inflammatory pain: significantly reduced the inflammatory pain response
5-HT2A receptor
  inhibition at 10 µM: 45%
5-HT4 receptor
  effect on 5-HT4 (functionality): no significant effect
5-HT2C receptor
  IC50: 16.5 µM

Source: US20120190751A1, “COMPOUNDS FOR TREATMENTS OF INFLAMMATION” (ANA-MAR AB, priority 2009, published 2012)
